Assay in all cases: growth of human tumour cells (NCI), 48 h
Assay [1] concerns KM20L2 colon.
Assay [2] deals with UACC-62 melanoma.
The test system of assay [3] is SK-MEL-28 melanoma.
The subject of assay [4] is SK-MEL-5 melanoma.
In assay [5] the test system is ACHN renal.
The test system of assay [6] is SF-268 CNS.
Assay [7] deals with RPMI-8226 leukemia.
The subject of assay [8] is EKVX NSCLC.
In assay [9] the test system is DLD-1 colon.
In assay [10] the test system is LOX IMVI melanoma.

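Growth conditions: 96-well plates. Treatment: test compound, 48 hours, 5 concentrations. Analysis: linear interpolation between bracketing concentrations; unreached endpoints set to highest concentration. Here, GI50 denotes the concentration required for 50% inhibition of growth. TGI denotes the concentration required for complete inhibition of growth.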

As to `CC(C)(C)CC(C)(C)c1cc2c(O)c(c1)Cc1cc(C(C)(C)CC(C)(C)C)cc(c1O)Cc1cc(C(C)(C)CC(C)(C)C)cc(c1O)Cc1cc(C(C)(C)CC(C)(C)C)cc(c1O)Cc1cc(C(C)(C)CC(C)(C)C)cc(c1O)C2`, the TGI in [1], in assay [2], in [3], in assay [4], in [5] and in assay [6] was above 100 µM throughout. Besides, the TGI in [7], in [8] and in assay [9] was above 100 µM throughout.
Regarding `COC(=O)C1=C(O)c2cc(-c3ccccc3)c(-c3ccccc3)c(C#N)c2NC(=O)C1`, the TGI in assay [1], in assay [2], in [3], in [5], in assay [8] and in [9] was above 100 µM in each case.
Turning to `COc1ccc2c3c([nH]c2c1[N+](=O)[O-])C(C)N(Cc1ccc([N+](=O)[O-])cc1)CC3` (centres undefined), the TGI in assay [1] was 45 µM; in [2] it was 52.4 µM; in [3] it was 44.5 µM; in assay [5], above 100 µM; in [6], 9.22 µM; in assay [7], 26.2 µM. Also, the TGI in assay [8] is above 100 µM; in assay [10] it was 26.8 µM.
Consider `COc1ccc(-c2cc(=O)c3ccccc3o2)cc1N`, for which the TGI in [1], in assay [2], in [3], in [4], in [5] and in assay [6] was above 100 µM each time. Moreover, the TGI in assay [7], in [8] and in assay [10] was above 100 µM in each case.
Consider `O=C1[C@H]2ON(c3ccccc3)C(c3ccccc3)[C@H]2C(=O)N1c1ccc(Cc2ccc(N3C(=O)[C@@H]4ON(c5ccccc5)C(c5ccccc5)[C@@H]4C3=O)cc2)cc1` (some centres undefined), for which the TGI in assay [1], in assay [2], in [3], in [4], in assay [5] and in [6] was above 100 µM each time. The TGI in assay [7], in [10] and in assay [9] was above 100 µM throughout.
As to `O=C1O[C@H](c2ccccc2)[C@@H]2CC3(CCN12)OCCO3`, the TGI in assay [1], in assay [2], in [3], in [4], in [5] and in [6] was above 100 µM throughout. Moreover, the TGI in assay [7], in [8] and in assay [10] was above 100 µM in each case.
Regarding `C=C1C(=O)O[C@H]2[C@H]1CC/C(COC(=O)c1cc3ccccc3o1)=C\CC[C@@]1(C)O[C@@H]21`, the GI50 in assay [2] was 1.68 µM; in assay [3] it was 1.75 µM; in [4], 1.52 µM; in [5] it was 1.44 µM; in [6] it was 1.56 µM; in assay [7], 0.715 µM. The GI50 in [8] was 2.02 µM; in assay [10], 1.42 µM. In addition, the TGI in assay [2] was found to be 3.23 µM; in assay [3] it was 3.59 µM; in [4] it was 2.89 µM; in assay [5] it was 2.76 µM; in [6], 3.27 µM; in assay [7], 3.44 µM. Moreover, the TGI was found to be 6.12 µM in assay [8] and 2.81 µM in [10].
Turning to `C=C(C)[C@@H]1CC[C@]2(C(=O)O)CC[C@]3(C)[C@H](CC[C@@H]4[C@@]5(C)CCC(NC(=O)c6cccc(OC(C)=O)c6OC(C)=O)C(C)(C)[C@@H]5CC[C@]43C)[C@@H]12` (some centres undefined), the GI50 in assay [2] is 0.209 µM; in assay [3], 0.46 µM; in assay [4], 0.48 µM; in assay [5], 0.323 µM; in [6], 0.78 µM; in assay [7], 0.697 µM. Further, the figures for the GI50 in assay [8] and in assay [10] were 0.918 µM and 0.488 µM, respectively. Moreover, the TGI in assay [2] stood at 0.618 µM; in assay [3] it was 3.03 µM; in assay [4] it was 1.67 µM; in assay [5] it was 2.61 µM; in assay [6], 11.9 µM; in assay [7], 4.44 µM. The TGI in assay [8] is above 100 µM; in assay [10], 1.74 µM.
`O=C(c1ccccc1)c1c(-c2ccccc2)sc2nc3ccccc3nc12`: the TGI in [1], in [2], in assay [3], in assay [4], in assay [5] and in [6] was above 100 µM throughout. Also, the TGI in [7] and in [8] was above 100 µM each time.
As for `COc1cc(OC)c(SSCCCCS(=O)O)c(OC)c1`, the TGI stood at 37.9 µM in assay [1]; 27.9 µM in assay [2]; 29.7 µM in assay [3]; 22.3 µM in assay [4]; 31.8 µM in [5]; 44 µM in assay [6]. The TGI in [8] came to 31.3 µM; in assay [10], 29 µM; in assay [9], 41.1 µM.
Regarding `O=C(O)CCCSc1ccccc1`, the TGI in [2], in [3], in assay [4], in assay [5], in assay [6] and in assay [7] was above 100 µM in each case. In addition, the TGI in assay [8] and in assay [10] was above 100 µM throughout.
Take `CC(=O)OC1CCn2nnc(CO)c21` (centres undefined): the TGI in [1], in [2], in assay [3], in assay [4], in assay [7] and in assay [8] was above 100 µM each time. The same molecule displayed a TGI in assay [9] above 100 µM.
For the molecule `CC(=O)CC(N)=O`, the TGI in [1], in assay [2], in [3], in assay [4], in [5] and in [6] was above 100 µM each time. For the same molecule, the TGI in assay [7], in assay [8] and in assay [9] was above 100 µM each time.
For the molecule `COc1cc(-c2ccc(-c3ccc(C(=N)N)nc3)s2)cc(OC)c1OC`, the GI50 is 1.73 µM in assay [2]; 1.62 µM in assay [3]; 1.67 µM in [4]; 1.73 µM in [5]; 14.6 µM in assay [6]; 1.67 µM in assay [7]. Also, the GI50 is 5.19 µM in assay [8] and 1.87 µM in [10]. Further, the TGI in assay [2] amounted to 3.3 µM; in [3], 3.18 µM; in assay [4], 3.08 µM; in [5], 3.14 µM; in assay [6] it was 33.2 µM; in [7] it was 3.97 µM. The TGI in assay [8] is 18.2 µM; in assay [10], 3.48 µM.
In the case of `C=C1C(C2(C)C(OC(C)=O)CC(=O)OC(C)(COC(C)=O)C2CC(=O)OC)C(OC=O)C(OC(=O)C(O)C(C)CC)C2(C)C(c3ccoc3)CC(=O)C12O` (centres undefined), the TGI in assay [2] is above 100 µM; in assay [3], above 100 µM; in [4], above 100 µM; in assay [5], above 52.8 µM; in assay [6], above 100 µM; in [7], above 100 µM. Further, the TGI in assay [8] and in [10] was above 100 µM each time.
On to `CC1=C(C(=O)Nc2cc(=O)n(C)c(=O)n2C)C(c2cccc([N+](=O)[O-])c2)C(C(=O)Nc2cc(=O)n(C)c(=O)n2C)=C(C)N1`, for which the TGI in [1], in assay [3], in assay [4], in assay [5], in assay [6] and in [7] was above 100 µM in each case. For the same molecule, the TGI in assay [8], in assay [10] and in [9] was above 100 µM throughout.
Take `CNC(=O)c1ccc(N2C(=S)N(c3ccc(C#N)c(C(F)(F)F)c3)C(=O)C2(C)C)cc1F`: the GI50 was 26.9 µM in assay [2]; above 51.8 µM in assay [3]; 20.3 µM in assay [4]; 22.4 µM in assay [5]; above 52.3 µM in assay [6]; 24.4 µM in [7]. Moreover, the values for the GI50 in [8] and in assay [10] were 25 µM and 36.5 µM, respectively. Moreover, the TGI is above 72.4 µM in assay [2]; above 96.1 µM in assay [3]; 50 µM in [4]; above 62.9 µM in [5]; above 100 µM in [6]; above 80 µM in assay [7]. In addition, the TGI in assay [8] is above 80.5 µM; in [10], above 62.2 µM.
In the case of `c1cc(N2CCCN(c3ccc(C4=NCCCN4)cc3)CC2)ccc1C1=NCCCN1`, the GI50 in [2] is 68.1 µM; in assay [3] it was above 100 µM; in assay [4], 46.6 µM; in assay [5], above 100 µM; in [6], above 100 µM; in assay [7], above 100 µM. Besides, the GI50 was 40.6 µM in assay [8] and above 100 µM in [10]. Besides, the TGI in assay [2], in assay [3], in assay [4], in assay [5], in [6] and in [7] was above 100 µM in each case. Moreover, the TGI in assay [8] and in assay [10] was above 100 µM each time.
Consider `CN1CC(=O)N(C)c2ncn(Cc3ccccc3)c2C1=O`, for which the TGI in assay [2], in assay [3], in assay [4], in assay [5], in assay [6] and in assay [7] was above 100 µM in each case. Also, the TGI in [8], in assay [10] and in assay [9] was above 100 µM in each case.
In the case of `C=C(C#N)C1OCC2OC(C)(C)OC21` (centres undefined), the TGI was 31.9 µM in assay [2]; 43.2 µM in assay [3]; 34 µM in [4]; 42.4 µM in [5]; 52.5 µM in assay [6]; 60 µM in assay [8]. The values for the TGI in assay [10] and in assay [9] were 30.4 µM and 34.4 µM, respectively.
`CNC(=S)NC(=O)c1c(Cl)n(C(=O)OC(C)(C)C)c2ccccc12`: the GI50 in assay [2] was 56.2 µM; in assay [3] it was above 100 µM; in [4] it was 28.1 µM; in [5], 89.6 µM; in assay [6], 72.8 µM; in [7], 20.5 µM. The figures for the GI50 in assay [8] and in assay [10] were 39.7 µM and 30 µM, respectively. Besides, the TGI in assay [2] is above 100 µM; in assay [3], above 100 µM; in assay [4], above 100 µM; in assay [5], above 100 µM; in assay [6], above 100 µM; in assay [7], 68.9 µM. Also, the TGI in assay [8] and in assay [10] was above 100 µM each time.
Consider `O=C(CCc1nnc2s/c(=C\c3ccc(Cl)c(Cl)c3)c(=O)n12)Nc1ccc(Cl)c(Cl)c1`, for which the TGI in [1], in assay [2], in assay [3], in [4], in assay [5] and in assay [6] was above 100 µM throughout. In addition, the TGI is 62.2 µM in assay [7], above 100 µM in assay [8] and 39 µM in assay [10].
Take `CC(=O)[CH-]C(=O)c1ccccc1.CC(=O)[CH-]C(=O)c1ccccc1.CC(C)CCCC(C)[C@H]1CCC2[C@@H]3CC=C4C[C@@H]([O-])CC[C@]4(C)C3CC[C@@]21C.CC(C)CCCC(C)[C@H]1CCC2[C@@H]3CC=C4C[C@@H]([O-])CC[C@]4(C)C3CC[C@@]21C.[Ti+4]` (some centres undefined): the GI50 in [1], in assay [2], in assay [3], in assay [4], in assay [5] and in [6] was above 100 µM in each case. For the same molecule, the GI50 in assay [7] and in [9] was above 100 µM throughout. The TGI in [1], in [2], in assay [3], in assay [4], in [5] and in assay [6] was above 100 µM throughout. Further, the TGI in assay [7] and in [9] was above 100 µM throughout.
`O=c1ccs[nH]1`: the TGI was found to be 39.8 µM in [2]; 67.5 µM in [3]; 46.5 µM in [4]; 17.8 µM in assay [5]; 35.4 µM in [6]; 21.8 µM in assay [7]. In addition, the figures for the TGI in [8] and in assay [10] were 27.2 µM and 18.4 µM, respectively.

For the origin of these results see PubChem BioAssay (NCI).
